Consider 13 molecules from ChEMBL document CHEMBL3871307, “Discovery of Chromane Propionic Acid Analogues as Selective Agonists of GPR120 with in Vivo Activity in Rodents” (ACS Med Chem Lett, 2017).

Molecules are shown by their SMILES.

Sequence of Free fatty acid receptor 1 (O14842 whole entry): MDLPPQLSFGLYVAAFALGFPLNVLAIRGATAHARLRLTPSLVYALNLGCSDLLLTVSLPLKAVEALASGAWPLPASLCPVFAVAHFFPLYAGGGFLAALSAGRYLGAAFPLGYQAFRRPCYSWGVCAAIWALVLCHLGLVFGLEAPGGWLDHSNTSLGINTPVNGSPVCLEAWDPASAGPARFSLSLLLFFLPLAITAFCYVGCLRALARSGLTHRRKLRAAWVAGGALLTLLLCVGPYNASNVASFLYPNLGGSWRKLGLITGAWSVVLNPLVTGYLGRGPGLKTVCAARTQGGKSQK

The first test deals with T1, Free fatty acid receptor 4 (Homo sapiens) (UniProt Q5NUL3).
T1 sequence (whole entry): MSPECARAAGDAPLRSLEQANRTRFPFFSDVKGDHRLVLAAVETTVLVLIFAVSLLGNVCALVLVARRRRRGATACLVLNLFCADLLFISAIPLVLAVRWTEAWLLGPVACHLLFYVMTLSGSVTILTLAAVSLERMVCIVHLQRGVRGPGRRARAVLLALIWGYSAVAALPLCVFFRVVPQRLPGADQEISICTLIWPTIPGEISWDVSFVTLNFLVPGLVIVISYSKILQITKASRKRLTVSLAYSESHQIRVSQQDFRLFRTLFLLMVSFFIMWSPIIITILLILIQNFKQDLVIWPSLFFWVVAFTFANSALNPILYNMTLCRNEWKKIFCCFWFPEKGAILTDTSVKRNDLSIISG
Briefly: Agonist activity at human GPR120 short isoform expressed in CHOK1 cells assessed as increase in IP1 accumulation at 10 uM after 60 mins by HTRF assay. Type of test: functional, cell-based. Conditions: CHO-K1. A general note: Time-resolved FRET reads energy transfer from a long-lived donor to a nearby acceptor.
As to `O=C(O)[C@@H]1C[C@H]1[C@H]1CCc2cc(-c3cc(OC(F)(F)F)ccc3F)ccc2O1`, the Activity was more than 50%.

Regarding `COc1cc(OC(F)(F)F)cc(-c2ccc3c(c2)CC[C@H](CCC(=O)O)O3)c1F`, the Activity was more than 50%.

Regarding `O=C(O)CC[C@@H]1CCc2cc(-c3cc(OC(F)(F)F)ccc3F)ccc2O1`, the Activity was more than 50%.

For `O=C(O)CC[C@H]1CCc2cc(-c3cc(OC4CCC4)ccc3F)ccc2O1`, the Activity is more than 50%.

For `COc1cc(OC2CC2)cc(-c2ccc3c(c2)CC[C@H](CCc2nnn[nH]2)O3)c1F`, the Activity is more than 50%.

Take `COc1cc(OC(F)(F)F)cc(-c2ccc3c(c2)CC[C@H](CCc2nnn[nH]2)O3)c1F`: the Activity was 45%.

With `O=C(O)CC[C@H]1CCc2cc(-c3cc(OC4CCC4)cnc3F)ccc2O1`, the Activity is more than 50%.

As to `COc1cc(OC2CCC2)cc(-c2ccc3c(c2)CC[C@H]([C@@H]2C[C@H]2C(=O)O)O3)c1F`, the Activity was more than 50%.

Regarding `Fc1ccc(OC(F)(F)F)cc1-c1ccc2c(c1)CC[C@H](CCc1nnn[nH]1)O2`, the Activity worked out at 17%.

As to `COc1cc(O[C@H]2C[C@H](OC)C2)cc(-c2ccc3c(c2)CC[C@H](CCc2nnn[nH]2)O3)c1F`, the Activity was more than 50%.

Take `COc1cc(OC2CCC2)cc(-c2ccc3c(c2)CC[C@H](CCC(=O)O)O3)c1F`: the Activity is more than 50%.

For the molecule `O=C(O)CC[C@H]1CCc2cc(-c3cc(OC4CCC4)cc(Cl)c3F)ccc2O1`, the Activity is more than 50%.

Regarding `O=C(O)[C@H]1C[C@@H]1[C@H]1CCc2cc(-c3cc(OC(F)(F)F)ccc3F)ccc2O1`, the Activity is more than 50%.

The next test concerns the target T2, Free fatty acid receptor 4 (Homo sapiens, UniProt Q5NUL3).
T2 sequence (Q5NUL3 whole entry): T1 sequence (whole entry)
Briefly: Agonist activity at human GPR120 short isoform expressed in CHOK1 cells assessed as beta-arrestin recruitment after 90 mins by luminescence assay. The test is classed as cell-based, CHO-K1.
Conditions: not given
For orientation: Recruitment of arrestin is a read-out of receptor activation apart from second messengers.
As for `O=C(O)[C@@H]1C[C@H]1[C@H]1CCc2cc(-c3cc(OC(F)(F)F)ccc3F)ccc2O1`, the EC50 – broadly, the concentration needed to bring the measured effect to its halfway point – stood at 0.033 µM.

Regarding `COc1cc(OC(F)(F)F)cc(-c2ccc3c(c2)CC[C@H](CCC(=O)O)O3)c1F`, the EC50 amounted to 0.011 µM.

For `O=C(O)CC[C@@H]1CCc2cc(-c3cc(OC(F)(F)F)ccc3F)ccc2O1`, the EC50 was determined as 0.042 µM.

For the molecule `O=C(O)CC[C@H]1CCc2cc(-c3cc(OC4CCC4)ccc3F)ccc2O1`, the 50% effective concentration (EC50) is 0.01 µM.

With `COc1cc(OC2CC2)cc(-c2ccc3c(c2)CC[C@H](CCc2nnn[nH]2)O3)c1F`, the EC50 is 0.032 µM.

Consider `COc1cc(OC(F)(F)F)cc(-c2ccc3c(c2)CC[C@H](CCc2nnn[nH]2)O3)c1F`, for which the EC50 is 0.15 µM.

Take `O=C(O)CC[C@H]1CCc2cc(-c3cc(OC4CCC4)cnc3F)ccc2O1`: the EC50 amounted to 0.14 µM.

As for `COc1cc(OC2CCC2)cc(-c2ccc3c(c2)CC[C@H]([C@@H]2C[C@H]2C(=O)O)O3)c1F`, the half-maximal effective concentration (EC50) turned out to be 0.008 µM.

On to `Fc1ccc(OC(F)(F)F)cc1-c1ccc2c(c1)CC[C@H](CCc1nnn[nH]1)O2`, for which the EC50 came out at 0.89 µM.

In the case of `COc1cc(O[C@H]2C[C@H](OC)C2)cc(-c2ccc3c(c2)CC[C@H](CCc2nnn[nH]2)O3)c1F`, the EC50 is 0.043 µM.

With `COc1cc(OC2CCC2)cc(-c2ccc3c(c2)CC[C@H](CCC(=O)O)O3)c1F`, the half-maximal effective concentration (EC50) stood at 0.009 µM.

For `O=C(O)CC[C@H]1CCc2cc(-c3cc(OC4CCC4)cc(Cl)c3F)ccc2O1`, the EC50 was found to be 0.0083 µM.

As to `O=C(O)[C@H]1C[C@@H]1[C@H]1CCc2cc(-c3cc(OC(F)(F)F)ccc3F)ccc2O1`, the EC50 stood at 0.13 µM.

The target in the next test is T2, Free fatty acid receptor 4. Briefly: Agonist activity at human GPR120 short isoform expressed in CHOK1 cells assessed as increase in IP1 accumulation after 60 mins by HTRF assay. The test is classed as functional, cell-based, CHO-K1.
Conditions: not given
Take `O=C(O)[C@@H]1C[C@H]1[C@H]1CCc2cc(-c3cc(OC(F)(F)F)ccc3F)ccc2O1`: the EC50 was 0.069 µM.

`COc1cc(OC(F)(F)F)cc(-c2ccc3c(c2)CC[C@H](CCC(=O)O)O3)c1F`: the EC50 was determined as 0.025 µM.

As for `O=C(O)CC[C@@H]1CCc2cc(-c3cc(OC(F)(F)F)ccc3F)ccc2O1`, the EC50 worked out at 0.18 µM.

For `O=C(O)CC[C@H]1CCc2cc(-c3cc(OC4CCC4)ccc3F)ccc2O1`, the EC50 is 0.028 µM.

Consider `COc1cc(OC2CC2)cc(-c2ccc3c(c2)CC[C@H](CCc2nnn[nH]2)O3)c1F`, for which the EC50 was 0.051 µM.

For `COc1cc(OC(F)(F)F)cc(-c2ccc3c(c2)CC[C@H](CCc2nnn[nH]2)O3)c1F`, the EC50 came out at 0.13 µM.

With `O=C(O)CC[C@H]1CCc2cc(-c3cc(OC4CCC4)cnc3F)ccc2O1`, the EC50 stood at 0.079 µM.

Consider `COc1cc(OC2CCC2)cc(-c2ccc3c(c2)CC[C@H]([C@@H]2C[C@H]2C(=O)O)O3)c1F`, for which the EC50 amounted to 0.025 µM.

With `Fc1ccc(OC(F)(F)F)cc1-c1ccc2c(c1)CC[C@H](CCc1nnn[nH]1)O2`, the EC50 turned out to be 0.33 µM.

In the case of `COc1cc(O[C@H]2C[C@H](OC)C2)cc(-c2ccc3c(c2)CC[C@H](CCc2nnn[nH]2)O3)c1F`, the EC50 is 0.053 µM.

For the molecule `COc1cc(OC2CCC2)cc(-c2ccc3c(c2)CC[C@H](CCC(=O)O)O3)c1F`, the EC50 was determined as 0.015 µM.

Consider `O=C(O)CC[C@H]1CCc2cc(-c3cc(OC4CCC4)cc(Cl)c3F)ccc2O1`, for which the EC50 came out at 0.04 µM.

On to `O=C(O)[C@H]1C[C@@H]1[C@H]1CCc2cc(-c3cc(OC(F)(F)F)ccc3F)ccc2O1`, for which the EC50 came to 0.32 µM.

Another test concerns the target Free fatty acid receptor 1 (Homo sapiens, UniProt O14842). Briefly: Agonist activity at human GPR40 expressed in HEK293 cells assessed as increase in IP1 accumulation after 60 mins by HTRF assay. The test is classed as functional, cell-based.
Conditions: not given
As to `O=C(O)[C@@H]1C[C@H]1[C@H]1CCc2cc(-c3cc(OC(F)(F)F)ccc3F)ccc2O1`, the EC50 was more than 10 µM.

As for `COc1cc(OC(F)(F)F)cc(-c2ccc3c(c2)CC[C@H](CCC(=O)O)O3)c1F`, the EC50 amounted to 4.4 µM.

With `O=C(O)CC[C@@H]1CCc2cc(-c3cc(OC(F)(F)F)ccc3F)ccc2O1`, the EC50 was more than 10 µM.

For `O=C(O)CC[C@H]1CCc2cc(-c3cc(OC4CCC4)ccc3F)ccc2O1`, the EC50 is 3.6 µM.

Consider `COc1cc(OC2CC2)cc(-c2ccc3c(c2)CC[C@H](CCc2nnn[nH]2)O3)c1F`, for which the EC50 was more than 10 µM.

For the molecule `COc1cc(OC(F)(F)F)cc(-c2ccc3c(c2)CC[C@H](CCc2nnn[nH]2)O3)c1F`, the EC50 is more than 10 µM.

With `O=C(O)CC[C@H]1CCc2cc(-c3cc(OC4CCC4)cnc3F)ccc2O1`, the EC50 is more than 10 µM.

Regarding `COc1cc(OC2CCC2)cc(-c2ccc3c(c2)CC[C@H]([C@@H]2C[C@H]2C(=O)O)O3)c1F`, the EC50 was more than 10 µM.

For the molecule `Fc1ccc(OC(F)(F)F)cc1-c1ccc2c(c1)CC[C@H](CCc1nnn[nH]1)O2`, the EC50 is more than 10 µM.

With `COc1cc(O[C@H]2C[C@H](OC)C2)cc(-c2ccc3c(c2)CC[C@H](CCc2nnn[nH]2)O3)c1F`, the EC50 is more than 10 µM.

`COc1cc(OC2CCC2)cc(-c2ccc3c(c2)CC[C@H](CCC(=O)O)O3)c1F`: the EC50 is more than 10 µM.

`O=C(O)CC[C@H]1CCc2cc(-c3cc(OC4CCC4)cc(Cl)c3F)ccc2O1`: the EC50 is more than 10 µM.

As for `O=C(O)[C@H]1C[C@@H]1[C@H]1CCc2cc(-c3cc(OC(F)(F)F)ccc3F)ccc2O1`, the EC50 was more than 10 µM.
